Measurements: patent publication US8399681B2, “Substituted aminothiazolone indazoles as estrogen related receptor-alpha modulators” (Janssen Pharmaceutica NV, priority 2009, dated 2013)

Key:
[1] = molecular target: T1, ERR1 (also known as ERR-α or ERR-1) (Homo sapiens, UniProt P11474); assay: TR-FRET assay (disruption of co-activator peptide binding); assay type: biochemical; conditions: 6His-tagged ERR1 LBD, GST-hSRC2 co-activator polypeptide; average of 3 independent experiments
T1 sequence (P11474 193-421 limits assumed): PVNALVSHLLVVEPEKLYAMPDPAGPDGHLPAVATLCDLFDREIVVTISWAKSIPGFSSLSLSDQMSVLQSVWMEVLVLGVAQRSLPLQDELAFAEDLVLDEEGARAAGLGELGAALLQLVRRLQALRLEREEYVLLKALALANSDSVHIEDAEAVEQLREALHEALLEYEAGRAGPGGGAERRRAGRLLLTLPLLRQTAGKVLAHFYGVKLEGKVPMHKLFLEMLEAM
Procedure, shortened: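 His6-ERR1 LBD (6 nM) with GST-SRC-2 peptide (6 nM), anti-GST Eu cryptate (30 nM) and anti-His XL665 (7.5 nM) in Tris pH 8/KCl/DTT/BSA buffer, equilibrated 4-18 h at 25 °C. Ex 340, em 615/665 nm; hyperbolic dose-response fit, mean of 3 experiments.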

Zucker fa/fa male rats = assay: Zucker fa/fa Rat Model Assay; assay type: in vivo; conditions: dosed orally once a day for 4 days, blood collected at day 5
Description: Zucker fa/fa is a monogenic model of frank diabetes due to a mutation on the fa gene truncating the leptin receptor and preventing its interaction with its peptide hormone. This mutation results in a hyperphagic phenotype and the rodent develops obesity, hyperlipidemia, fasting hyperglycemia and insulin resistance. Zucker fa/fa male rats were received at four weeks of age and allowed to acclimate for one week. At five weeks of age the animals were single housed in cages in a temperature-controlled room with 12-hour light/dark cycle. The rats were allowed ad libitum access to water and food and throughout the study were maintained on a Purina 5008 diet. Animals were sorted based primarily on fed insulin levels and circulating triglycerides. Animals were dosed orally once a day in the morning for 4 days. The vehicle used was either 20% HPβCD (Hydroxypropyl Beta Cyclodextrin) or 15% Vitamin E/30% PEG-400 (Polyethylene Glycol 400). Fed insulin and triglycerides were measured using blood collected from the tail vein at day 5. Serum plasma samples were prepared by centrifugation in EDTA (Ethylenediaminetetraacetic acid) containing tubes, transferred into 96 well plates and stored at −80° C.

SMILES	EC50 [1] [nM]	% Lowering Fed Insulin Levels (Zucker fa/fa male rats) [%]	% Lowering Fed Triglyceride Levels (Zucker fa/fa male rats) [%]
O=C(O)C1=CCN(C2=NC(=O)/C(=C/c3ccc4c(cnn4Cc4ccc(Cl)cc4C(F)(F)F)c3)S2)CC1 [Example 198, 1-[5-({1-[4-Chloro-2-(trifluoromethyl)benzyl]-1H-indazol-5-yl}methylidene)-4-oxo-4,5-dihydro-1,3-thiazol-2-yl]-1,2,3,6-tetrahydropyridine-4-carboxylic acid]	15	35	21
O=C1N=C(N2CCC(C(=O)O)CC2)S/C1=C\c1ccc2c(cnn2Cc2ccc(C(F)(F)F)cc2C(F)(F)F)c1 [Compound 1, 1-{5-[1-(2,4-Bis-trifluoromethyl-benzyl)-1H-indazol-5-ylmethylene]-4-oxo-4,5-dihydro-thiazol-2-yl}-piperidine-4-carboxylic acid]	10.1	58	37
O=C1N=C(N2CCC(C(=O)O)CC2)S/C1=C\c1ccc2c(cnn2Cc2ccc(Cl)cc2C(F)(F)F)c1 [Example 39, 1-{5-[1-(4-Chloro-2-trifluoromethyl-benzyl)-1H-indazol-5-ylmethylene]-4-oxo-4,5-dihydro-thiazol-2-yl}-piperidine-4-carboxylic acid]	3.2	58	35
O=C1N=C(N2CCc3c(O)noc3C2)S/C1=C\c1ccc2c(cnn2Cc2ccc(Cl)cc2C(F)(F)F)c1 [Example 197, 5-({1-[4-Chloro-2-(trifluoromethyl)benzyl]-1H-indazol-5-yl}methylidene)-2-(3-hydroxy-4,7-dihydroisoxazolo[5,4-c]pyridin-6(5H)-yl)-1,3-thiazol-4(5H)-one]	29	27	2
O=C1N=C(N2CCN[C@@H](CO)C2)S/C1=C\c1ccc2c(c1)c(Cl)nn2Cc1ccc(C(F)(F)F)cc1C(F)(F)F [Example 186, 5-[1-(2,4-Bis-trifluoromethyl-benzyl)-3-chloro-1H-indazol-5-ylmethylene]-2-(3-(R)-hydroxymethyl-piperazin-1-yl)-thiazol-4-one]	5	75	56
O=C1N=C(N2CCOC(C(=O)O)C2)S/C1=C\c1ccc2c(cnn2Cc2ccc(C(F)(F)F)cc2C(F)(F)F)c1 (centres unmarked) [Example 188, 4-[5-({1-[2,4-Bis(trifluoromethyl)benzyl]-1H-indazol-5-yl}methylidene)-4-oxo-4,5-dihydro-1,3-thiazol-2-yl]morpholine-2-carboxylic acid]	19.7	81	59
O=C1N=C(N2CCN[C@@H](CO)C2)S/C1=C\c1ccc2c(cnn2Cc2ccc(C(F)(F)F)cc2C(F)(F)F)c1 [Example 139, 5-[1-(2,4-Bis-trifluoromethyl-benzyl)-1H-indazol-5-ylmethylene]-2-(3-(R)-hydroxymethyl-piperazin-1-yl)-thiazol-4-one]	16	82	58
COC(=O)N[C@@H]1C[C@H](CO)N(C2=NC(=O)/C(=C/c3ccc4c(cnn4Cc4ccc(C(F)(F)F)cc4C(F)(F)F)c3)S2)C1 [Example 213, Methyl {1-[5-({1-[2,4-bis(trifluoromethyl)benzyl]-1H-indazol-5-yl}methylidene)-4-oxo-4,5-dihydro-1,3-thiazol-2-yl]-5-(R)-(hydroxymethyl)pyrrolidin-3-(R)-yl}carbamate]	21	42	30
CN1CCN(C2=NC(=O)/C(=C/c3ccc4c(c3)c(C#N)nn4Cc3ccc(Cl)cc3C(F)(F)F)S2)CC1 [Example 223, 1-[4-Chloro-2-(trifluoromethyl)benzyl]-5-{[2-(4-methylpiperazin-1-yl)-4-oxo-1,3-thiazol-5(4H)-ylidene]methyl}-1H-indazole-3-carbonitrile]	13.4	77	85

Now from value to compound, other results behind:

EC50 [1] [nM]	SMILES	% Lowering Fed Insulin Levels (Zucker fa/fa male rats) [%]	% Lowering Fed Triglyceride Levels (Zucker fa/fa male rats) [%]
20	O=C1N=C(N2CCOC[C@H]2CO)S/C1=C\c1ccc2c(cnn2Cc2ccc(Cl)cc2C(F)(F)F)c1 [Example 142, 5-[1-(4-Chloro-2-trifluoromethyl-benzyl)-1H-indazol-5-ylmethylene]-2-(3(R)-hydroxymethyl-morpholin-4-yl)-thiazol-4-one]	63	55
13.1	O=C1N=C(N2CCCNCC2)S/C1=C\c1ccc2c(cnn2Cc2ccc(Cl)cc2C(F)(F)F)c1 [Example 54, 5-[1-(4-Chloro-2-trifluoromethyl-benzyl)-1H-indazol-5-ylmethylene]-2-[1,4]diazepan-1-yl-thiazol-4-one]	60	27
25	O=C1N=C(N2CCC[C@H]2CN2CCCC2)S/C1=C\c1ccc2c(cnn2Cc2ccc(Cl)cc2C(F)(F)F)c1 [Example 64, 5-[1-(4-Chloro-2-trifluoromethyl-benzyl)-1H-indazol-5-ylmethylene]-2-(S)-(2-pyrrolidin-1-ylmethyl-pyrrolidin-1-yl)-thiazol-4-one]	46	51
10	O=C1N=C(N2CCNCC(O)C2)S/C1=C\c1ccc2c(cnn2Cc2ccc(Cl)cc2C(F)(F)F)c1 (centres unmarked) [Example 125, 5-[1-(4-Chloro-2-trifluoromethyl-benzyl)-1H-indazol-5-ylmethylene]-2-(6-hydroxy-[1,4]diazepan-1-yl)-thiazol-4-one]	30	–
17.3	N[C@@H]1CCN(C2=NC(=O)/C(=C/c3ccc4c(cnn4Cc4ccc(Cl)cc4C(F)(F)F)c3)S2)C1 [Example 62, 2-(3-(R)-Amino-pyrrolidin-1-yl)-5-[1-(4-chloro-2-trifluoromethyl-benzyl)-1H-indazol-5-ylmethylene]-thiazol-4-one]	48	36
